Data on eight compounds can be found in ChEMBL document CHEMBL5244213, “Current advances in drug discovery for Chagas disease” (Eur J Med Chem, 2018).

For data set [1], the system named is Trypanosoma cruzi. Description: Antitrypanosomal activity against Trypanosoma cruzi Y […] transfected in monkey LLC-MK2 cells assessed as inhibition of […] viability measured after 24 hrs by Neubauer chamber based analysis. In kind it is functional, organism-based. To be noted: LLC-MK2, 24 h.
For data set [2], the system named is Trypanosoma cruzi. Description: Antitrypanosomal activity against Trypanosoma cruzi Y intracellular amastigote transfected in monkey LLC-MK2 cells assessed as inhibition of intracellular amastigote viability measured after 24 hrs by Neubauer chamber based analysis. In kind it is functional, organism-based. To be noted: LLC-MK2, 24 h.
Data set [3] is described as follows: Selectivity index, ratio of IC50 for cytotoxicity against monkey LLC-MK2 cells to IC50 for antitrypanosomal activity against Trypanosoma cruzi Y […] transfected in monkey LLC-MK2 cells. In kind it is toxicity, cell-based. To be noted: read-out: Ratio IC50.
A short description of data set [4]: Selectivity index, ratio of IC50 for cytotoxicity against monkey LLC-MK2 cells to IC50 for antitrypanosomal activity against Trypanosoma cruzi Y intracellular amastigote transfected in monkey LLC-MK2 cells. To be noted: read-out: Ratio IC50. In kind it is toxicity, cell-based.
The test system of data set [5] is Trypanosoma cruzi. Description: Antitrypanosomal activity against Trypanosoma cruzi Y […] transfected in African green monkey Vero cells assessed as inhibition of […] viability measured after 48 hrs by DAPI staining based fluorescence microscopic assay. It counts as functional, organism-based.
The test system of data set [6] is Trypanosoma cruzi. Description: Antitrypanosomal activity against Trypanosoma cruzi Sylvio X-10 intracellular amastigotes transfected in African green monkey Vero cells assessed as inhibition of intracellular amastigotes viability measured after 72 hrs by giemsa-staining based analysis. It counts as functional, organism-based. The following applies: Sylvio X-10, Vero.

Data set [7] in a line: Selectivity index, ratio of IC50 for cytotoxicity against African green monkey Vero cells to IC50 for antitrypanosomal activity against Trypanosoma cruzi X-10 intracellular amastigotes transfected in African green monkey Vero cells. In kind it is toxicity, cell-based. To be noted: read-out: Ratio IC50.
For data set [8], the system named is Trypanosoma cruzi. The experiment in a line: Antitrypanosomal activity against Trypanosoma cruzi Tulahuen 2 intracellular epimastigotes assessed as viability of […] measured after 5 days by absorbance based analysis. In kind it is functional, organism-based. To be noted: Tulahuen 2, 120 h.
Data set [9] can be described thus: Selectivity index, ratio of IC50 for cytotoxicity against mouse J774.1 cells to IC50 for antitrypanosomal activity against Trypanosoma cruzi Tulahuen 2 […]. In kind it is toxicity, cell-based. To be noted: read-out: Ratio IC50.
The test system of data set [10] is Trypanosoma cruzi. Description: Antitrypanosomal activity against Trypanosoma cruzi […] assessed as inhibition of […] viability. It counts as functional, organism-based.
Data set [11] concerns Trypanosoma cruzi. Description: Antitrypanosomal activity against Trypanosoma cruzi Y intracellular amastigotes assessed as inhibition of intracellular amastigotes viability at 10 uM measured after 72 hrs relative to control. In kind it is functional.
Data set [12] has as its system Trypanosoma cruzi. The experiment in a line: Antitrypanosomal activity against Trypanosoma cruzi Dm28c […] transfected in African green monkey Vero cells assessed as inhibition of […] viability measured after 24 hrs by MTT assay. It counts as functional, organism-based. (In general: Tetrazolium assays rely on reduction of a dye to a coloured formazan, in cell work by metabolically active cells.)

Data set [13] has as its system Trypanosoma cruzi. The experiment in a line: Antitrypanosomal activity against Trypanosoma cruzi Dm28c intracellular amastigotes transfected in African green monkey Vero cells assessed as inhibition of intracellular amastigotes viability measured after 24 hrs by MTT assay. It counts as functional, organism-based.
The nature of data set [14]: Selectivity index, ratio of IC50 for cytotoxicity against African green monkey Vero cells to IC50 for antitrypanosomal activity against Trypanosoma cruzi Dm28c […] transfected in African green monkey Vero cells. In kind it is toxicity, cell-based. The following applies: read-out: Ratio IC50.
Data set [15] can be described thus: Selectivity index, ratio of IC50 for cytotoxicity against African green monkey Vero cells to IC50 for antitrypanosomal activity against Trypanosoma cruzi Dm28c intracellular amastigotes transfected in African green monkey Vero cells. It counts as toxicity, cell-based. The following applies: read-out: Ratio IC50.
For data set [16], the system named is Trypanosoma cruzi. The experiment in a line: Antitrypanosomal activity against Trypanosoma cruzi Tulahuen CL2 intracellular amastigotes transfected in human MRC5 cells assessed as inhibition of intracellular amastigotes viability using […] substrate measured after 7 days by chlorophenol red […] staining based analysis. It counts as functional, organism-based. The following applies: Tulahuen CL2, MRC5, 168 h.

As a reminder, the IC50 is the concentration needed to halve the response being measured. In the case of `N/C(S)=N/N=C/c1ccc([N+](=O)[O-])cc1`, the IC50 was 1.43 µM in the data set with Trypanosoma cruzi [1] and 11.8 µM in the data set on Trypanosoma cruzi [2]. For the same compound, the selectivity ratio is 26.2 in [3] and 11.6 in data set [4].

By EC50 is commonly meant the concentration needed to bring the measured effect to its halfway point. In the case of `O=C(OCCCCCCCCCCCC[P+](c1ccccc1)(c1ccccc1)c1ccccc1)c1cc(O)c(O)c(O)c1`, the EC50 in the data set on Trypanosoma cruzi [5] is 1 µM.

As to `O=C(OCCCCCCCCCC[P+](c1ccccc1)(c1ccccc1)c1ccccc1)c1cc(O)c(O)c(O)c1`, in the data set on Trypanosoma cruzi [5], the EC50 turned out to be 1 µM.

With `C=CCn1c(C(=O)N2CCN(C/C=C/c3ccccc3)CC2)cs\c1=N/N=C/C=C/c1ccco1`, the IC50 in the data set on Trypanosoma cruzi [6] was 0.7 µM. Further, the selectivity ratio in data set [7] is 433.

Consider `O=C(CS/C(C(=O)c1ccc2ccccc2c1)=C1\C=C(c2ccc(O)cc2)SS1)c1ccc2ccccc2c1`, for which the IC50 with Trypanosoma cruzi [8] was determined as 4.9 µM. Further, the selectivity ratio in data set [9] worked out at 12.8.

As a reminder, the inhibition is the change of the read-out against control, counted positive when it falls. On to `COc1cccc(Nc2c(C#N)cnc3ccc(Cl)cc23)c1`, for which the concentration for half-maximal inhibition (IC50) with Trypanosoma cruzi [10] was less than 1 µM. Moreover, the inhibition at 10 µM in the data set with Trypanosoma cruzi [11] worked out at 65%.

`CC1(C(CC(=O)/C=C/c2ccccc2)c2ccccc2)N=C(c2ccccc2)OC1=O` (configuration not stated): the results for the IC50 in the data set with Trypanosoma cruzi [12] and in the data set on Trypanosoma cruzi [13] were 33 µM and 2.34 µM, respectively. The selectivity ratio in [14] was found to be 6.74; in data set [15], 95.

For the compound `CCOc1cccc2sc(N(Cc3cccnc3)C(=O)C3CCCCC3)nc12`, the concentration for half-maximal inhibition (IC50) in the data set on Trypanosoma cruzi [16] came out at 0.16 µM.
